In patent publication US8865756B2, “Inhibitors of HCV NS5A” (Presidio Pharmaceuticals, Inc., priority 2008, dated 2014) one finds EC50 data, which are given here for 16 compounds.

The subject of this assay is HCV 1b_Huh-Luc/Neo-ET cell line persistently expressing a bicistronic genotype 1b replicon in Huh 7 cells. Description: HCV replicon assay (luciferase readout). It is filed as cell-based. The settings on record: Hepatitis C virus, Huh-7, 72 h, read-out: Inhibition of HCV genotype 1b. Here is the method: Biological activity of the compounds of the invention was determined using an HCV replicon assay. The HCV 1b_Huh-Luc/Neo-ET cell line persistently expressing a bicistronic genotype 1b replicon in Huh 7 cells was obtained from ReBLikon GMBH. This cell line was used to test compound inhibition using luciferase enzyme activity readout as a measurement of compound inhibition of replicon levels.
On Day 1 (the day after plating), each compound is added in triplicate to the cells. Plates incubated for 72 h prior to running the luciferase assay. Enzyme activity was measured using a Bright-Glo Kit (cat. number E2620) manufactured by Promega Corporation. The following equation was used to generate a percent control value for each compound. % Control=(Average Compound Value/Average Control)*100
The EC50 value was determined using GraphPad Prism and the following equation: Y=Bottom+(Top−Bottom)/(1+10^((Log IC50−X)*HillSlope))
EC50 values of compounds are determined several times in the replicon assay.
Example compounds of the disclosed invention are illustrated in Tables 1-14 attached as appendices. The tables show inhibitory activity of many of the example compounds with respect to HCV 1b. […] The tables further provide mass spectrometry results for the synthesized example compounds.
For orientation: A replicon is a self-replicating genome or part of one, used to study replication in cells.

Some results are limits rather than exact numbers.

Regarding `COC(=O)N[C@@H](C(=O)N1CCC[C@H]1c1ncc(-c2ccc(C#Cc3ccc(-c4cnc([C@@H]5CCCN5C(=O)[C@H](NC(=O)N5CCC[C@@H](O)C5)c5ccccc5)[nH]4)cc3)cc2)[nH]1)c1ccccc1` [Compound 264], the EC50 is < 1 nM.

In the case of `O=C(N[C@@H](C(=O)N1CCC[C@H]1c1ncc(C#Cc2ccc(-c3cnc([C@@H]4CCCN4C(=O)[C@H](NC(=O)N4CCOCC4)c4ccccc4)[nH]3)cc2)[nH]1)c1ccccc1)N1CCOCC1` [Compound 102], the EC50 fell in the range of 1 to 9.9 nM. On to `COC(=O)N[C@H](C(=O)N1CCC[C@H]1c1nc2ccc(C#Cc3ccc4nc([C@@H]5CCCN5C(=O)[C@@H](NC(=O)OC)C(C)C)[nH]c4c3)cc2[nH]1)C(C)C` [Compound 852], for which the EC50 was < 1 nM. The figure for `CN1CCN(C(=O)N[C@@H](C(=O)N2CCC[C@H]2c2cc(-c3ccc(C#Cc4ccc(-c5cnc([C@@H]6CCCN6C(=O)[C@H](NC(=O)N6CCN(C)CC6)c6ccccc6)[nH]5)cc4)cc3)n[nH]2)c2ccccc2)CC1` [Compound 213] is < 1 nM; for `COC(=O)N[C@H](C(=O)N1CCC[C@H]1c1ncc(-c2ccc(C#Cc3ccc4c(c3)CCCc3nc([C@@H]5CCCN5C(=O)[C@@H](NC(=O)OC)C(C)C)[nH]c3-4)cc2)[nH]1)C(C)C` [Compound 1096] it is < 1 nM; for `COC(=O)N[C@H](C(=O)N1CCC[C@H]1c1ncc(-c2ccc(C#Cc3ccc4nc([C@@H]5CCCN5C(=O)[C@@H](NC(=O)OC)C(C)C)[nH]c4c3)cc2)[nH]1)C(C)C` [Compound 802] it is < 1 nM. Regarding `CN(C)[C@@H](C(=O)N1CCC[C@H]1c1ncc(-c2ccc(C#Cc3cnc([C@@H]4CCCN4C(=O)[C@H](NC(=O)C4CC4)c4ccccc4)[nH]3)cc2)[nH]1)c1ccccc1` [Compound 131], the EC50 was < 1 nM.

For the compound `CCC(CC)[C@H](NC(=O)OC)C(=O)N1CCC[C@H]1c1ncc(-c2ccc(C#Cc3ccc4nc([C@@H]5CCCN5C(=O)[C@@H](NC(=O)OC)C(CC)CC)[nH]c4c3)cc2)[nH]1` [Compound 1030], the EC50 is < 1 nM.

`COC(=O)N[C@H](C(=O)N1CCC[C@H]1c1nc(-c2cnc3cc(C#Cc4ccc(-c5cnc([C@@H]6CCCN6C(=O)[C@@H](NC(=O)OC)C(C)C)[nH]5)cc4)ccc3c2)c[nH]1)C(C)C` [Compound 1088]: the EC50 was in the range of 1 to 9.9 nM. The figure for `CC(C)OC(=O)N[C@@H](C(=O)N1CCC[C@H]1c1ncc(-c2ccc(C#Cc3ccc(-c4cnc([C@@H]5CCCN5C(=O)[C@H](NC(=O)OC(C)C)c5ccccc5)[nH]4)cc3)cc2)[nH]1)c1ccccc1` [Compound 227] is < 1 nM; for `COC(=O)N[C@@H](C(=O)N1CCC[C@H]1c1ncc(C#Cc2ccc(-c3ccc(-c4cnc([C@@H]5CCCN5C(=O)[C@@H](c5ccccc5)N(C)C)[nH]4)cc3)cc2)[nH]1)c1ccccc1` [Compound 755] it is < 1 nM; for `CC[C@@H](C)[C@H](NC(=O)OC)C(=O)N1CCC[C@H]1c1ncc(-c2ccc(C#Cc3ccc4nc([C@@H]5CCCN5C(=O)[C@@H](NC(=O)OC)[C@H](C)CC)[nH]c4c3)cc2)[nH]1` [Compound 1024] it is < 1 nM. For the compound `CC(C)(C)OC(=O)N[C@@H](C(=O)N1CCC[C@H]1C(=O)NCc1ccc(C#Cc2ccc(-c3cnc([C@@H]4CCCN4C(=O)[C@H](NC(=O)OC(C)(C)C)c4ccccc4)[nH]3)cc2)cc1)c1ccccc1` [Compound 189], the EC50 was < 1 nM. `COC(=O)N[C@@H](C(=O)N1CCC[C@H]1CNC(=O)c1ccc(C#Cc2ccc(-c3cnc([C@@H]4CCCN4C(=O)[C@H](NC(=O)OC)c4ccccc4)[nH]3)cc2)cc1)c1ccccc1` [Compound 211]: the EC50 is < 1 nM. The figure for `CN1CCN(C(=O)N[C@@H](C(=O)N2CCC[C@H]2c2ncc(-c3ccc(C#Cc4ccc(-c5cnc([C@@H]6CCCN6C(=O)[C@H](NC(=O)C6CC6)c6ccccc6)[nH]5)cc4)cc3)[nH]2)c2ccccc2)CC1` [Compound 238] is < 1 nM. The figure for `O=C(N[C@@H](C(=O)N1CCC[C@H]1C(=O)Nc1ccc(C#Cc2cnc([C@@H]3CCCN3C(=O)[C@H](NC(=O)C3CC3)c3ccccc3)[nH]2)cc1)c1ccccc1)C1CC1` [Compound 117] is < 1 nM.
